# Results from patent US10188633B2, “Identification of small molecules that facilitate therapeutic exon skipping” (The Regents of the University of California, priority 2011, dated 2019).
# Legend:
# [1] = test system: human DMD exon 50 GFP based reporter; assay: Secondary screening, 12 or 16 point titrations on the DMD exon 50 reporter cell line with or without AON6; assay type: cell-based, mouse
# Protocol: 12 or 16 point titrations of compounds were added to the Ex50-GFP and C2C12 myoblasts either with or without AON6.
# A stable clone was generated from C2C12 cells transfected with a human exon 50 DMD GFP reporter (ex50GFP) that has been previously described. Ex50GFP reporter myoblasts were seeded into uncoated 384 well plates and were incubated for 4 hours either with or without 300 nM of 2′-O-methyl phosphorothioate AON6 [5′[…] 3′ (SEQ ID NO:1)] targeting the human exon 50 splice donor site. Cells were transfected with AON6 using the FUGENE (Roche) transfection reagent per manufacturer's instructions. Following AON6 incubation, each component of the BioMol library (n=503) was screened at 10 uM concentration with a final concentration of the DMSO carrier being 1%. Forty-eight hours later fluorescence was measured using the MicroXpress high content imager and analyzed using MetaXpress. Immediately preceding imaging, DNA was stained with Hoescht for 30 min. The BioMol screen without AO (−AO) was performed in 6 replicates, and the with AO (+AO) screen was performed in 3 replicates. For the screen analysis raw fluorescence values were normalized to carrier controls present on each plate by subtracting the values. Negative fluorescence values were set to 0. The data from each compound were averaged from all replicates. For secondary screening by 12 or 16 point dose response, Ex50GFP myoblasts or C2C12 cells without the reporter were seeded on uncoated 384 well plates. A sub-optimal dose of AON6 targeting DMD exon 50 was added for 4 hours. Following the 4 hour incubation, a compound dilution was added (beginning at 100 uM with 1:1 dilutions) for either 12 or 16 points. After a 48 hour incubation with compounds, DNA was stained with Hoescht, and fluorescence determined using the high content imager and analyzed with MetaXpress.
# exon skipping = assay: Counter screens, 16 point titrations and mdx mouse myotubes (validation of lead hits); assay type: cell-based
# Source text: The cell line, which was adapted to allow the screening of thousands of compounds in multiple replicates, was obtained from Dr. Qi Lu. […]
# Dmd exon 23 = Dmd exon 23 skipping in primary mouse myotubes with 2'-O-methyl AO M23D (RT-PCR, taqman); assay type: cell-based
# Protocol: (§1) (A) Differentiated primary mouse myotubes were transfected either with 100 nM 2′-O-methyl M23D, which targets exon 23 splice donor region or mock transfected for 24 hours after which the transfection reagent was removed, and myotubes were treated with different concentrations of Dantrolene for 48 hours. Nested RT-PCR was performed on cDNA between exons 20-26, as previously described. The 901 bp band is the full-length mRNA product, the 688 bp mRNA product is a single skip of exon 23, and the 550 bp mRNA product is a double skip of exons 22 and 23. (B) Mouse Dmd exon 23-skipped transcript levels were quantified using a taqman assay with primer-probe sets spanning the splice junction created by an exon 23 skip (22-24 join) relative to primers amplifying the splice junction of exons 22 and 23 (representing the full length mRNA), as previously described. […] Error bars represent standard deviation of qRT-PCR triplicates. (C) Patient derived fibroblasts with exon 45-50 deletion (confirmed by microarray, see FIG. 6) were immortalized with lentiviral hTERT and transduced with inducible lentiviral MyoD [26]. Cells were grown to confluence, induced for MyoD activity, and fused for 10 days in low serum differentiation media. On Day 7, h51AON [5′ […] 3′] (SEQ ID NO:2) (same sequence as Pro051) within human exon 51 was added at concentrations indicated. Twenty-four hours later Dantrolene or vehicle was added. Cells were harvested 2 days later and total RNA isolated. RT-PCR amplified a fragment of cDNA from exons 42-53 which was followed by a nested PCR to generate a fragment spanning exons 43-52. The 540 bp product is the full length DMD mRNA species and the 307 bp product indicates the exon 51 skip isoform. Quantitation was performed using the Agilent Bioanalyzer and represented as the skip/full-length mRNA ratio.
# DMD exon 51 = DMD exon 51 skipping in reprogrammed DMD patient fibroblasts fused to myotubes (GM05017, iDRM05017) with exon 51 AO; assay type: cell-based, human
# Protocol: as §1
# Patient fibroblasts with a DMD exon 45-50 deletion were immortalized and transduced with a lenti-viral vector expressing inducible MyoD to create iDRMs (inducibly directly reprogrammable myotubes, specifically iDRM05017s). iDRM05017s were induced for MyoD activity and then cultured for 10 days in fusion media. On Day 7, AO was added for twenty-four hours then removed and Piperacetazine, Trifluoperazine Dihydrochloride, Fluphenazine Dihydrochloride or vehicle (Dimethyl sulfoxide; DMSO) were added in fresh media. After two days total RNA was harvested, cDNA reverse transcribed with a DMD specific primer in exon 54, and exon 51 skipping was detected by nested RT-PCR spanning exons 43-52. Quantitation of exon 51 skipping was performed using the Agilent Bioanalyzer and is represented as the proportion of exon 51 skipping. Error bars represent the standard deviation (SD) of 3 independent wells.
# Patient fibroblasts were transduced with HTERT and an inducible MyoD vector [26]. […] Exon 51 skipping activity was assessed in the context of transfecting an exon 51 2′-O-methyl AO with equivalent sequence to Pro051 seven days after fusion. This AO is directed at an exonic splicing enhancer (ESE) sequence within exon 51. The AO was removed prior to addition of dantrolene and cultures were harvested two days later. A nested RT-PCR was performed between DMD exons 43-52 and levels of exon 51 skipping were determined by quantitating capillary electrophoresis separated fragments representing skipped and unskipped DMD mRNA.
# mdx mice [2] = assay: Systemic (intravenous) PMOE23 with intraperitoneal dantrolene in mdx mice, exon 23 skipping and dystrophin in multiple muscles; assay type: in vivo, mouse
# Protocol: A systemic dose of 100 mg/kg or sub-optimal 10 mg/kg of morpholino M23D (+07-18) was administered by tail vein injection on Day 1. From Day 2-7 Dantrolene was administered intraperitoneally at a dose of 10 mg/kg/day in two divided doses. On Day 8 multiple muscles were harvested for analysis. (A) DMD exon 23 skipping was assessed as in FIG. 3. Skip/full-length mRNA ratio data were combined for all mice and for all initial muscle groups tested (quadricep, gastrocnemius, tibialis anterior and diaphragm). (B) Dystrophin protein was assessed by Western blot (Mandys8) quantitative densitometry for all muscle groups and individual mice (quadricep, gastrocnemius, tibialis anterior and diaphragm). (C) Quantitative immunohistochemistry is plotted as arbitrary units normalized to surface area for each section for all muscle groups and mice using one whole muscle cross section per animal per muscle. […] (E) Immunostaining of serial sections of treated mdx quadricep detects sarcolemmal localization of dystrophin (MANDYS8), alpha-sarcoglycan (NCL-a-sarc) and beta-dystroglycan (NCL-b-DG). […] Error bars in A-C represent the standard deviation among mice and muscles in each group (n=3 animals or n=12 total observations in saline+dantrolene and 100 mg/kg AO+DMSO; n=4 animals or n=16 observations in 10 mg/kg AO with Dantrolene or DMSO).
# This enabled us to assess whether dantrolene in combination with systemic morpholino PMOE23 could enhance Dmd exon 23 skipping and induce dystrophin protein expression in multiple skeletal muscles. A single intravenous dose of 100 mg/kg PMOE23 was used as a positive control. A single intravenous dose of 10 mg/kg AO was used as a sub-optimal dose alone or in combination with twice daily dosing of 10 mg/kg/day of dantrolene intraperitoneally for the subsequent 6 days [7, 27] (n=3 in control groups and n=4 in experimental groups; Table 5).
# Multiple skeletal muscles were harvested for analysis on day 7 including the quadriceps, gastrocnemius, tibialis anterior, diaphragm, triceps and heart. Muscles were assessed for: 1) increased amounts of skipped Dmd exon 23 mRNA species 2) Dystrophin protein rescue by Western blot 3) Dystrophin protein expression by quantitative immunostain, 4) appropriate subcellular localization, and 5) restoration of other components of the dystroglycan complex to the sarcolemmal membrane. To determine if dantrolene enhanced Dmd exon 23 skipping, the quantitative taqman assay was performed on RNA from each skeletal muscle.
# RNA was isolated from snap frozen skeletal muscle using the QIAGEN RNAeasy Fibrous Tissue Kit.
# mdx mice [3] = assay: Taut wire test (wire hang) in mdx mice, weekly AO with daily dantrolene; assay type: in vivo, mouse; conditions: 10 mg/kg/week AO with dantrolene 10 mg/kg/day versus AO alone, Day 18, p=0.022
# Protocol: Weekly systemic doses of saline, 10 mg/kg of morpholino M23D (+07-18) was administered intravascularly on Day 1, 8, and 15. Dantrolene or carrier (20% DMSO in saline) was administered intraperitoneally at a dose of 10 mg/kg/day in two divided doses daily. On Day 18 functional improvement was blindly assessed by using the taut wire test. Latency to fall (in seconds) was recorded for five consecutive trials, with a one minute break occurring in between each trial. Plotted is first the average across five trials, and then the normalized average (seconds/grams) across experimental groups. Error bars represent the s.e.m.
# [4] = long term administration; cited from earlier work
# [5] = 10 mg/kg PMOE23 IV with dantrolene 10 mg/kg/day IP
smiles,measurement,setting,value
O=C1CN(/N=C/c2ccc(-c3ccc([N+](=O)[O-])cc3)o2)C(=O)N1 [DANTROLENE],increase in fluorescence in the Ex50-GFP+AO compared to the reporter line without AO,"[1]; 12 or 16 point titrations from 100 uM, positivity criterion (FIG. 5 legend: >10%)",10%
same,dose response in Ex50-GFP reporter,[1]; 12 or 16 point titrations with AON6,evidence of a dose response
same,efficacy in counter screen and on mdx mouse myotubes,exon skipping,showing efficacy in counter screen and on mdx mouse myotubes
same,amount of exon 23 skipped product (RT-PCR exons 20-26),Dmd exon 23; 25 and 50 uM dantrolene after 100 nM M23D,increased the amount of exon 23 skipped product
same,exon 23 skipping in the absence of AO,Dmd exon 23; no AO,failed to cause exon 23 skipping
same,"increase of Dmd exon 23 skipping (skip/full length mRNA, taqman) versus AO alone","Dmd exon 23; with suboptimal 100 nM AO M23D, mouse myotubes",3 fold
same,AO directed DMD exon 51 skipping,"DMD exon 51; compound added 24 h after AO for two days, nested RT-PCR exons 43-52",enhance AO directed DMD exon 51 skipping
same,enhancement of exon 51 skipping versus vehicle control,"DMD exon 51; with suboptimal dose of exon 51 AO, skip/full-length mRNA ratio, Bioanalyzer",up to 8 fold
same,"Dmd exon 23 mRNA skipping, aggregate analysis of all skeletal muscle groups (excluding heart)",mdx mice [2]; [5],significantly increased
same,"Dmd exon 23 skipping in the gastrocnemius, TA, diaphragm and quadriceps",mdx mice [2]; [5],enhanced skipping
same,Dmd exon 23 skipping in the triceps,mdx mice [2]; [5],Enhancement was not apparent
same,Dmd exon 23 skipping in heart muscle,mdx mice [2]; any experimental condition,No appreciable skipping
same,"mean fold increase in dystrophin protein expression, PMOE23 with dantrolene relative to PMOE23 with vehicle","mdx mice [2]; pooled Western blot densitometry across quadricep, gastrocnemius, TA and diaphragm",3.1 fold
same,"taut wire test, latency to fall (muscle strength)",mdx mice [3]; listed as Dantrolene,significantly increased ability of mdx mice to hang on wire
same,"taut wire test, latency to fall (muscle strength)",mdx mice [3]; listed as dantrolene,functional benefit
same,dose shown to be safe in humans,[4],up to 8 mg/kg/day
